Article PMC10818380, “Triphenylphosphonium Analogs of Short Peptide Related to Bactenecin 7 and Oncocin 112 as Antimicrobial Agents” (Pharmaceutics, 2024)
Square brackets hold non-standard residues; d marks the D form. Peptide text beside a SMILES is read from it. * marks the point of attachment. X2 = c1ccc([P+](CCCCCCCCCCN*)(c2ccccc2)c2ccccc2)cc1; X1 = c1ccc([P+](CCN*)(c2ccccc2)c2ccccc2)cc1

How the values were obtained:
B. subtilis = test: Membrane potential with fluorescent probe diS-C3-(5); assay type: cell-based; conditions: diS-C3-(5) fluorescence
Experimental: The membrane potential of B. subtilis was assessed by measuring the fluorescence emitted by the potential-dependent probe, diS-C3-(5). Bacterial cells derived from the overnight culture of B. subtilis were inoculated into a fresh LB medium and allowed to grow for 24 h until reaching an optical density of 0.8 at 600 nm. Subsequently, the bacteria were subjected to a 20-fold dilution in a buffer comprising 100 mM of KCl and 10 mM of Tris, adjusted to a pH of 7.4. Fluorescence measurements were conducted at 670 nm (with excitation at 630 nm) using a Fluorat-02-Panorama fluorimeter manufactured by Lumex Instruments in St. Petersburg, Russia.

[1] = test system: E. coli ΔompF, E. coli ΔmdtH; test: Antibacterial activity on agar plates, ΔompF and ΔmdtH strains versus wild type; assay type: cell-based; conditions: Figure 4
Experimental: Antibiotic activity was also evaluated against the following strains: E. coli JW5503 ΔtolC (KanS) ermC, modified with the plasmid pKH80 [59], providing resistance to erythromycin due to the expression of ErmC methyltransferase; E. coli SQ171 ΔtolC transformed with the pAM552 plasmid; E. coli SQ171 ΔtolC modified with the pAM552 plasmid with A2059G substitution in the 23S rRNA; E. coli JW1052 ΔmdtH; E. coli JW0912 ΔompF; and E. coli JW0368 ΔsbmA [57]. The procedure was performed as described previously in [33]. In short, Petri dishes filled with LB solid medium containing a selective antibiotic and 1.5% agar were covered with the tested strains. After that, 1 µL of 10 mM water solutions of Bac(1–10), Bac(1–10, R/Y), Bac(1–10, R/Y)-Cn-TPP, TPP-C10-Bac(1–10, R/Y), and Onc112, LEV (25 μg/mL) in water, and ERY (5 mg/mL and 50 mg/mL) in DMSO were applied onto the agar plates. After overnight incubation at 37 °C, the plates were scanned using the ChemiDoc^TM Imagining System (Bio-Rad Laboratories, Hercules, CA, USA) in three channels (Cy2, Cy3, and Cy5). The obtained images were processed in the Image Lab^TM software (Version 6.0.1, Bio-Rad).

CC[C@H](C)[C@H](NC(=O)[C@H](CCCNC(=N)N)NC(=O)[C@@H](N)CCCNC(=N)N)C(=O)N[C@@H](CCCNC(=N)N)C(=O)N1CCC[C@H]1C(=O)N[C@@H](CCCNC(=N)N)C(=O)N1CCC[C@H]1C(=O)N1CCC[C@H]1C(=O)N[C@@H](Cc1ccc(O)cc1)C(=O)N[C@@H](CC(C)C)C(=O)NCC[P+](c1ccccc1)(c1ccccc1)c1ccccc1 [Compound 3, Bac(1–10, R/Y)-C2-TPP] (H-RRIRPRPPYL-X1; N-terminus assumed)
effect on membrane potential of B. subtilis (B. subtilis; concentration not given): a decrease in the membrane potential

CC[C@H](C)[C@H](NC(=O)[C@H](CCCNC(=N)N)NC(=O)[C@@H](N)CCCNC(=N)N)C(=O)N[C@@H](CCCNC(=N)N)C(=O)N1CCC[C@H]1C(=O)N[C@@H](CCCNC(=N)N)C(=O)N1CCC[C@H]1C(=O)N1CCC[C@H]1C(=O)N[C@@H](Cc1ccc(O)cc1)C(=O)N[C@@H](CC(C)C)C(=O)NCCCCCCCCCC[P+](c1ccccc1)(c1ccccc1)c1ccccc1 [Compound 4, Bac(1–10, R/Y)-C10-TPP] (H-RRIRPRPPYL-X2; N-terminus assumed)
effect on membrane potential of B. subtilis (B. subtilis; 1 µM): rapid decrease in the membrane potential

CC[C@H](C)[C@H](NC(=O)[C@@H](CCCNC(=N)N)NC(=O)[C@H](CCCNC(=N)N)NC(=O)[C@@H]1CCCN1C(=O)[C@@H]1CCCN1C(=O)[C@H](CCCNC(=N)N)NC(=O)[C@@H]1CCCN1C(=O)[C@H](CCCNC(=N)N)NC(=O)[C@@H]1CCCN1C(=O)[C@H](CC(C)C)NC(=O)[C@H](Cc1ccc(O)cc1)NC(=O)[C@@H]1CCCN1C(=O)[C@@H]1CCCN1C(=O)[C@H](CCCCN)NC(=O)[C@H](CC(=O)O)NC(=O)[C@@H](N)C(C)C)C(=O)N[C@@H](Cc1ccc(O)cc1)C(=O)N[C@@H](CC(N)=O)C(=O)N[C@H](CCCNC(=N)N)C(N)=O [Onc112, reference compound] (H-VDKPPYLPRPRPPR[dR]IYN[dR]-NH2; N-terminus assumed)
growth inhibition of E. coli ΔompF and ΔmdtH compared with wild-type strain [1]: no significant difference in the growth inhibition
